Data from patent US11071317B2, “Sweetness enhancement” (Givaudan, S.A., priority 2015, dated 2021).
“And” between values parts separate entries of the source, which are not always exact repeats. Equal values may be shown once.

Experiments:
Type in all cases: in vivo
expert tasters [1] = experiment: Expert taster comparison, model beverage: water, 200 ppm sucralose, 2% cellobiose vs base
Description: Samples were evaluated by a panel of 7 expert tasters. Tasters were asked to compare the base (200 ppm of sucralose) with the model beverage (water, 200 ppm of sucralose, 2% cellobiose) focusing on the overall quality of sweetness, particularly on the enhancement of the upfront sweetness, overall sweetness intensity.

trained panelists = experiment: Descriptor scoring (overall, upfront, delayed, lingering sweet; 100-point scale) of 80 ppm Reb-A in water with 4% cellobiose
Description: The test was carried out by a panel of 14 trained panelists. The panelists scored 4 descriptors (overall sweet, upfront sweet, delayed sweet and lingering sweet) on a 100-point scale over 4 replications for a total of […].

expert tasters [2] = experiment: Expert taster comparison, plain zero-fat yoghurt with 180 ppm RebA and 4% cellobiose vs base; settings: 180 ppm RebA
Description: Yoghurt RebA 180 ppm+4% cellobiose
In a plain zero-fat yoghurt, sweetened with rebaudioside A (180 ppm), cellobiose was tested at 4% for sweetness enhancement. Samples were evaluated by a panel of 6 expert tasters. Tasters were asked to compare the base (plain yoghurt+180 ppm RebA) with the model yoghurt (plain yoghurt, 180 ppm RebA 4% cellobiose) focusing on the overall quality of sweetness.

expert tasters [3] = experiment: Expert taster comparison, model beverage: water, 5% sucrose, 2% cellobiose vs base
Description: Samples were evaluated by a panel of 13 expert tasters. Tasters were asked to compare the base (water with 5% of sucrose) with the model beverage (water, 5% of sucrose, and 2% cellobiose) focusing on the overall quality of sweetness, particularly on the enhancement of the upfront sweetness, overall sweetness intensity.

expert tasters [4] = experiment: Expert taster comparison, lemon lime beverage (water, sodium benzoate, 90 ppm sucralose, citric acid) with 4% cellobiose vs base; settings: 2000 ppm sodium benzoate, 500 ppm citric acid, 850 ppm lemon lime flavor
Description: Samples were evaluated by a panel of 6 expert tasters. Tasters were asked to compare the base (water, 2000 ppm sodium benzoate, 90 ppm sucralose, 500 ppm citric acid, 850 ppm lemon lime flavor) with the model beverage (water, 2000 ppm sodium benzoate, 90 ppm sucralose, 500 ppm citric acid, 850 ppm lemon lime flavor, 4% cellobiose) focusing on the overall quality of sweetness, particularly on the enhancement of the upfront sweetness, overall sweetness intensity.

expert tasters [5] = experiment: Expert taster comparison, model beverage: water, 7% sucrose, 2% cellobiose vs base
Description: Samples were evaluated by a panel of 6 expert tasters. Tasters were asked to compare the base (water with 7% of sucrose) with the model beverage (water, 7% of sucrose, and 2% cellobiose) focusing on the overall quality of sweetness, particularly on the enhancement of the upfront sweetness, overall sweetness intensity.

expert tasters [6] = experiment: Expert taster comparison, lemon lime beverage (water, sodium benzoate, 180 ppm Reb-A, citric acid) with 4% cellobiose vs base, panel of 8 (Example 12); settings: 2000 ppm sodium benzoate, 500 ppm citric acid, 850 ppm lemon lime flavor
Description: Samples were evaluated by a panel of 8 expert tasters. Tasters were asked to compare the base (water, 2000 ppm sodium benzoate, 180 ppm Reb-A, 500 ppm citric acid, 850 ppm lemon lime flavor) with the model beverage (water, 2000 ppm sodium Benzoate, 180 ppm Reb-A, 500 ppm citric acid, 850 ppm lemon lime flavor, 4% cellobiose) focusing on the overall quality of sweetness, particularly on the enhancement of the upfront sweetness, overall sweetness intensity.

expert tasters [7] = experiment: Expert taster comparison, model beverage: water, 95 ppm sucralose, 2% cellobiose vs base
Description: Samples were evaluated by a panel of 8 expert tasters. Tasters were asked to compare the base (95 ppm of sucralose) with the model beverage (water, 95 ppm of sucralose, 2% cellobiose) focusing on the overall quality of sweetness, particularly on the enhancement of the upfront sweetness, overall sweetness intensity.

expert tasters [8] = experiment: Expert taster comparison, carbonated lemon lime beverage (sodium benzoate, 90 ppm Sucralose, citric acid) with 4% cellobiose vs base; settings: carbonated water, 2000 ppm sodium benzoate, 500 ppm citric acid, 850 ppm lemon lime flavor
Description: Samples were evaluated by a panel of 7 expert tasters. Tasters were asked to compare the base (carbonated water, 2000 ppm sodium benzoate, 90 ppm Sucralose, 500 ppm citric acid, 850 ppm lemon lime flavor) with the model beverage (water, 2000 ppm sodium benzoate, 90 ppm Sucralose, 500 ppm citric acid, 850 ppm lemon lime flavor, 4% cellobiose) focusing on the overall quality of sweetness, particularly on the enhancement of the upfront sweetness, overall sweetness intensity.

expert tasters [9] = experiment: Expert taster comparison, plain zero-fat yoghurt with 90 ppm sucralose and 4% cellobiose vs base; settings: 90 ppm sucralose
Description: In a plain zero-fat yoghurt, sweetened with sucralose (90 ppm), cellobiose was tested at 4% for sweetness enhancement. Samples were evaluated by a panel of 6 expert tasters. Tasters were asked to compare the base (plain yoghurt+90 ppm sucralose) with the model yoghurt (plain yoghurt, 90 ppm sucralose, 4% cellobiose) focusing on the overall quality of sweetness.

expert tasters [10] = experiment: Expert taster comparison, lemon lime beverage (water, sodium benzoate, 180 ppm Reb-A, citric acid) with 4% cellobiose vs base, panel of 7 (Example 11); settings: 2000 ppm sodium benzoate, 500 ppm citric acid, 850 ppm lemon lime flavor
Description: Samples were evaluated by a panel of 7 expert tasters. Tasters were asked to compare the base (water, 2000 ppm sodium benzoate, 180 ppm Reb-A, 500 ppm citric acid, 850 ppm lemon lime flavor) with the model beverage (water, 2000 ppm sodium Benzoate, 180 ppm Reb-A, 500 ppm citric acid, 850 ppm lemon lime flavor, 4% cellobiose) focusing on the overall quality of sweetness, particularly on the enhancement of the upfront sweetness, overall sweetness intensity.

[11] = system: sweet sensitive panelists; experiment: Ranking of 5% sucrose+4% cellobiose against sucrose standards (6%, 7% and 8%) in water for overall sweetness intensity, r-index analysis; settings: 4% cellobiose in combination with 5% sucrose
Text: 20 sweet sensitive panelists rank ranked 5% sucrose+4% cellobiose and sucrose standards (6%, 7% and 8%) in water for overall sweetness intensity over 2 replications for a total of 40 observations. […] The expected sucrose equivalence (SE) of 4% cellobiose on top of 5% sucrose would be 6.25% (1.25%+5%) but the perceived SE was 7%, showing true sweetness enhancement.

expert tasters [12] = experiment: Expert taster comparison, model beverage: water, 5% sucrose, 0.1% cellobiose vs base
Description: Samples were evaluated by a panel of 9 expert tasters. Tasters were asked to compare the base (water with 5% of sucrose) with the model beverage (water, 5% of sucrose, and 0.1% cellobiose) focusing on the overall quality of sweetness, particularly on the enhancement of the upfront sweetness, overall sweetness intensity.

[13] = Sweetness and mouthfeel equivalence of sucrose + cellobiose solutions to sucrose solutions (general statement)
[14] = system: sweet sensitive panelists; experiment: Ranking of 4% cellobiose against sucrose standards (1% and 1.5%) in water for overall sweetness intensity, r-index analysis
Text: 20 sweet sensitive panelists ranked 4% cellobiose and sucrose standards (1% and 1.5%) for overall sweetness intensity over 2 replications for a total of 40 observations.

[15] = 4% cellobiose added to 80 ppm Reb-A in water, vs unaltered 80 ppm Reb-A base

OC[C@H]1O[C@@H](O[C@H]2[C@H](O)[C@@H](O)C(O)O[C@@H]2CO)[C@H](O)[C@@H](O)[C@@H]1O (mixture of isomers) [cellobiose]
mouthfeel (expert tasters [1]): better mouthfeel | offnotes (expert tasters [1]): decreased offnotes | profile (expert tasters [1]): rounded profile | sweetness enhancement (expert tasters [1]): significant sweetness enhancement | upfront sweetness enhancement (expert tasters [1]): upfront sweetness enhancement | delayed sweetness (trained panelists; [15]): significantly decreased | lingering sweetness (trained panelists; [15]): significantly decreased | overall sweetness (trained panelists; [15]): significantly increased | upfront sweetness (trained panelists; [15]): significantly increased | upfront sweetness (trained panelists; 80 ppm Reb-A and 4% cellobiose, vs isosweet 150 ppm Reb-A sample): significantly increased | Reb-A aqueous solution of the same sweetness (trained panelists; aqueous solution of 80 ppm Reb-A and 4% cellobiose): 150 ppm Reb-A | overall balance and quality of sweetness (expert tasters [2]): significantly better overall balance and quality of sweetness | sweetness (expert tasters [2]): much sweeter | mouthfeel (expert tasters [3]): better mouthfeel | profile (expert tasters [3]): rounded profile | sweetness enhancement (expert tasters [3]): significant sweetness enhancement | upfront sweetness enhancement (expert tasters [3]): upfront sweetness enhancement | aroma profile (expert tasters [4]): rounded aroma profile | sweetness enhancement (expert tasters [4]): significant sweetness enhancement | upfront sweetness enhancement (expert tasters [4]): upfront sweetness enhancement | profile (expert tasters [5]): rounded profile | sweetness enhancement (expert tasters [5]): significant sweetness enhancement | upfront sweetness enhancement (expert tasters [5]): upfront sweetness enhancement | aroma profile (expert tasters [6]): rounded aroma profile | mouthfeel (expert tasters [6]): improved mouthfeel | sweetness enhancement (expert tasters [6]): significant sweetness enhancement | upfront sweetness enhancement (expert tasters [6]): upfront sweetness enhancement | mouthfeel (expert tasters [7]): better mouthfeel | offnotes (expert tasters [7]): decreased offnotes | profile (expert tasters [7]): rounded profile | sweetness enhancement (expert tasters [7]): significant sweetness enhancement | upfront sweetness enhancement (expert tasters [7]): upfront sweetness enhancement | aroma profile (expert tasters [8]): rounded aroma profile | mouthfeel (expert tasters [8]): improved mouthfeel | sweetness enhancement (expert tasters [8]): significant sweetness enhancement | upfront sweetness enhancement (expert tasters [8]): upfront sweetness enhancement | balance and quality of sweetness (expert tasters [9]): significantly improved balance and quality of sweetness | sweetness (expert tasters [9]): much sweeter | aroma profile (expert tasters [10]): rounded aroma profile | mouthfeel (expert tasters [10]): improved mouthfeel | sweetness enhancement (expert tasters [10]): significant sweetness enhancement | upfront sweetness enhancement (expert tasters [10]): upfront sweetness enhancement | sweetness enhancement [11]: sweetness enhancement beyond an additive effect | profile (expert tasters [12]): rounded profile | sweetness enhancement (expert tasters [12]): significant sweetness enhancement | sucrose solution of similar sweetness and mouthfeel characteristics ([13]; solution of 2% sucrose and 4% cellobiose): ~4 % sucrose | sucrose solution of very similar taste ([13]; solution of 5% sucrose+4% cellobiose): ~7 % sucrose | sucrose solution of very similar taste ([13]; solution of 7% sucrose+4% cellobiose): ~9 % sucrose | sweetness rated as sweet as sucrose ([14]; 4% cellobiose): 1.25 % sucrose | inherent sweetness on its own ([14]; 4% cellobiose in water): not inherently sweet | overall sweetness intensity relative to sucrose standards ([14]; 4% cellobiose in water, r-index analysis, 95% confidence level, p-value<0.05): < 1.5 % sucrose and > 1.0 % sucrose
